Columns and labels:
GAPDH/Siah1 association = biological target: T1, GAPDH/Siah1 association (Homo sapiens, UniProt P04406+Q8IUQ4); experiment: Co-immunoprecipitation (pull down) of GAPDH/Siah1 association in hRP; assay type: cell-based; settings: high glucose 25 mM 48 hrs vs L-glucose 25 mM
T1 construct: immunoprecipitation (IP) with anti-Siah1, followed by western blot (WB) analysis of the immuno-complexes with anti-GAPDH; endogenous in cells; host or cells: primary human retinal pericytes (hRP), Cell Systems
T1 sequence (Q8IUQ4 whole entry): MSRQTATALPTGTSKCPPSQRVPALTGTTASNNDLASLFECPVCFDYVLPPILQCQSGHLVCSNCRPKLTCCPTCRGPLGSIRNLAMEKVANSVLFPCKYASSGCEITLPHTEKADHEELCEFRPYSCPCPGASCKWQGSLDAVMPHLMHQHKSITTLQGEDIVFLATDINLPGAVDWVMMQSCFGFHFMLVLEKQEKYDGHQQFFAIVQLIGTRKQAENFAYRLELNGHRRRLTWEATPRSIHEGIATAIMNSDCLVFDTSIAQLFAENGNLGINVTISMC
T1 sequence (P04406 2-335 limits assumed): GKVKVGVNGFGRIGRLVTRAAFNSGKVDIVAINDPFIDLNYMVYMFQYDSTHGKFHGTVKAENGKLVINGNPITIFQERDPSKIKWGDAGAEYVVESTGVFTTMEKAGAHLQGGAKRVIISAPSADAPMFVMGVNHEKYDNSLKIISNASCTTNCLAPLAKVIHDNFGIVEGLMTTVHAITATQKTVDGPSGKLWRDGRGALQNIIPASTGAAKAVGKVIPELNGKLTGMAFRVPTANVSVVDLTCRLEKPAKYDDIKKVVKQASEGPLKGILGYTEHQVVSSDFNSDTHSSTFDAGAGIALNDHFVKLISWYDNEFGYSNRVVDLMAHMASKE
Protocol: HRP were treated with normal glucose (5 mM), high glucose (25 mM) or L-glucose (25 mM) for 48 hrs.
HRP were treated with normal, osmotic control or high glucose plus 10 μM negative control siRNA, 10 μM Siah1-directed siRNA, 1 μM TAT-FLAG Control, 1 μM TAT-FLAG GAPDH peptide, 1 μM TAT-FLAG Siah1 peptide or 1 μM GAPDH+1 μM Siah1 peptides. Pull down assays were performed as described above. Our GAPDH peptide was designed to block the GAPDH binding site on Siah1 and the Siah1 peptide was designed to block the Siah1 binding site on GAPDH (Supplemental Table 1).
HRP Treatment: Primary cultures of human retinal pericytes (hRP) (Cell Systems; Kirkland, Wash.) were seeded into tissue culture flasks coated with attachment factor (Cell Signaling; Danvers, Mass.). HRP were grown and cultured in Dulbecco's modified Eagle's medium normal glucose (5.5 mM DMEM 1×, Life Technologies; Carlsbad, Calif.) supplemented with 10% FBS, and cell growth supplements, including antibiotics (Lonza; Basel). All cultures were incubated at 37° C., 5% CO2 and 95% relative humidity (20.9% oxygen). Passages 5 to 7 were used for all experiments. HRP identity was confirmed by immunoreactivity of neuron glial 2 (NG2) (EMD Millipore; Temecula, Calif.). […] A FLAG tag peptide sequence enables detection and quantification of these peptides (FIG. 12). […]

[1] = test system: human retinal pericytes (hRP); experiment: Apoptosis measurement by caspase-3 enzymatic activity in hRP; assay type: cell-based; settings: 25 mM D-glucose for 72 hrs
Protocol: HRP were treated with normal glucose, L-glucose or high glucose for 48 hrs-72 hrs. […] Furthermore, GAPDH and Siah1 blocking peptides inhibited high glucose-induced hRP apoptosis (FIG. 5D Control Peptide p=0.0019, GAPDH peptide p=0.0090, Siah1 peptide p=0.0053).
HRP Treatment: Primary cultures of human retinal pericytes (hRP) (Cell Systems; Kirkland, Wash.) were seeded into tissue culture flasks coated with attachment factor (Cell Signaling; Danvers, Mass.). HRP were grown and cultured in Dulbecco's modified Eagle's medium normal glucose (5.5 mM DMEM 1×, Life Technologies; Carlsbad, Calif.) supplemented with 10% FBS, and cell growth supplements, including antibiotics (Lonza; Basel). All cultures were incubated at 37° C., 5% CO2 and 95% relative humidity (20.9% oxygen). Passages 5 to 7 were used for all experiments. HRP identity was confirmed by immunoreactivity of neuron glial 2 (NG2) (EMD Millipore; Temecula, Calif.). […] A FLAG tag peptide sequence enables detection and quantification of these peptides (FIG. 12).
Apoptosis Measurements: All apoptosis measurements were taken after 72 hrs of appropriate treatment. […] Samples were quantified using flow cytometry analysis performed at Vanderbilt's Flow Cytometry Shared Resource core laboratory. […] Activity was quantified using the EnzChek Caspase-3 Assay Kit (Life Technologies). […] Fluorescence emission at 440 nm was measured 2 hrs later.

Siah1 = Siah1 total protein western blot in hRP; assay type: cell-based, human; settings: 25 mM D-glucose 48 hrs vs 25 mM L-glucose
Protocol: HRP were treated with normal glucose (5 mM D-glucose), osmotic control (25 mM L-glucose) or high glucose (25 mM D-glucose) for 48 hrs. Siah1 total protein increased 2-fold in cultures treated with high glucose compared to those treated with the osmotic control (p=0.0136). There was no significant difference between osmotic control and normal glucose treated cells (FIG. 1A).
Nuclear Fractionation and Western Blot Analysis: HRP were treated as necessary. Cells were harvested using TrypLE Express (Life Technologies), and lysed using radioimmunoprecipitation assay (RIPA) buffer (Qiagen; Limburg, Netherlands). The NE-PER nuclear and cytoplasmic extraction reagents (Thermo Scientific; Nashville, Tenn.) were used to separate lysates into cytosolic and nuclear fractions. Samples were equilibrated for total protein concentration, subjected to 10% SDS/PAGE, and gels were transferred to nitrocellulose membranes using the iBlot system (Life Technologies). […] (β-actin was used to determine total protein concentration. Membranes were incubated in Pierce ECL western blotting substrate and developed using ChemiDoc MP (Bio-Rad; Hercules, Calif.). At least three independent experiments were used to generate western blot quantification graphs. Blots were quantified using the ImageJ 1.47v software.

`O=C[C@H](O)[C@@H](O)[C@H](O)[C@H](O)CO` [high glucose, D-glucose] was tested, and the “increase in GAPDH/Siah1 association vs osmotic control” value (GAPDH/Siah1 association) was 1.5 fold, the “increase in caspase-3-enzymatic activity” value [1] was 3 fold and the “increase of Siah1 total protein vs osmotic control” value (Siah1) was 2 fold.

Reference: patent US20180296639A1, “THERAPEUTIC PEPTIDES” (Hoffmann-La Roche Inc., priority 2015, published 2018)
